Data from ChEMBL document CHEMBL3638507, “Heteroaromatic compounds as BTK inhibitors” (2015).
pIC50: −log10 of the molar value.

Biological target: Tyrosine-protein kinase BTK (Homo sapiens, UniProt Q06187)
Assay: HTRF Assay: An HTRF assay (Cisbio KinEASE-TK cat #62TKOPEC) was performed to quantitate the ability of test compounds to inhibit BTK mediated phosphorylation of substrate. Assays were assembled in 384 well plates where 6 nM of full-length human His-tagged BTK (Life Technologies cat #PV3587) and test compound at varying concentrations were preincubated for 15 minutes at 28° C. Then, 1 uM of TK substrate-biotin and 30 uM ATP were added and incubated for an additional 30 minutes at 28° C. Phospohrylation was detected by adding 62.5 nM Streptavidin-XL665 and TK-Antibody Cryptate diluted 1:100 in HTRF detection buffer (Cisbio cat #62SDBRDF) and incubated for 60 minutes at RT. The plate was read on an Envision plate reader and the fluoresence is measured at 620 nm (cryptate) and 665 nm (XL665). A ratio is calculated (665/620) and converted to POC relative to control and blank wells.Assay Buffer:50 mM HEPES (Invitrogen #15630), 0.01% Brij-35 (sigma #B4184), 10 mM MgC12 (Sigma M1028), 1 mM EGTA.

Chain of Tyrosine-protein kinase BTK (Q06187 whole entry): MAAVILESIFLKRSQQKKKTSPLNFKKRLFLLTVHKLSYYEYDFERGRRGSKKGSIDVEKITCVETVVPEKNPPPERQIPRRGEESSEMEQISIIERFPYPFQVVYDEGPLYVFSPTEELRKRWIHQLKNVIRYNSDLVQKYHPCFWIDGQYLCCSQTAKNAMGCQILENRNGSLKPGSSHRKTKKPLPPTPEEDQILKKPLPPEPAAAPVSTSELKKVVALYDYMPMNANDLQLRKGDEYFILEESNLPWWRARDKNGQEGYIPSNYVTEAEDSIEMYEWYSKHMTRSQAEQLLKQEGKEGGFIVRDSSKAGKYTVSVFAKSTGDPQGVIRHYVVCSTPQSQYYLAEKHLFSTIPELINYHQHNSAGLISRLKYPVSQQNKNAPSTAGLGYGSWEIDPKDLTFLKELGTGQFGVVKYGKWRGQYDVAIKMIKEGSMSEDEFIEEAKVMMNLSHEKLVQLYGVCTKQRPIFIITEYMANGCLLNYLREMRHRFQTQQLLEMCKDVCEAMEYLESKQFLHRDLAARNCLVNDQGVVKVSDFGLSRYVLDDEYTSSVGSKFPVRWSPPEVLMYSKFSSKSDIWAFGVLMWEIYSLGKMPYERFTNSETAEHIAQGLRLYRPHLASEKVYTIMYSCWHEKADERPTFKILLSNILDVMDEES

C=CC(=O)N1CC2(CC(n3nc(-c4ccc(Oc5ccccc5)cn4)c4c(N)ncnc43)C2)C1
pIC50: 8.80

C/C=C/C(=O)N1CC2(CC(n3nc(-c4ccc(Oc5ccccc5)cn4)c4c(N)ncnc43)C2)C1
pIC50: 7.19

CC#CC(=O)N1CC[C@]2(C1)C[C@H](n1nc(-c3ccc(Oc4ccccc4)cn3)c3c(N)ncnc31)C2
pIC50: 8.40

CC#CC(=O)N1CC2(CC(n3nc(-c4ccc(Oc5ccccc5)cn4)c4c(N)ncnc43)C2)C1
pIC50: 9.00
